Reference: the NIST ThermoML archive (doi:10.1016/j.tca.2007.02.005)
± gives the expanded uncertainty stated by the source.

Columns and labels:
[1] = Crystal; DTA
[2] = Molar enthalpy of transition or fusion; conditions: Crystal; DSC

SMILES	Normal melting temperature [1]	Molar enthalpy of transition or fusion [2]
CCn1cc[n+](C)c1.F[P-](F)(F)(F)(F)F [1-ethyl-3-methylimidazolium hexafluorophosphate]	60.90 ± 1.2 °C	4.3 ± 0.105 kcal/mol
c1ccc(-c2nc(-c3ccccc3)c(-c3ccccc3)[nH]2)cc1 [2,4,5-triphenyl-1H-imidazole]	274.60 ± 2.1 °C	8.92 ± 0.194 kcal/mol
c1ccc(-c2ncc[nH]2)cc1 [2-phenyl-1H-imidazole]	146.80 ± 2.1 °C	4.26 ± 0.108 kcal/mol
c1ccc(-c2nc[nH]c2-c2ccccc2)cc1 [4,5-diphenylimidazole]	231.80 ± 2.1 °C	7.73 ± 0.17 kcal/mol
